Reference: patent US7517889B2, “2,6-substituted-4-monosubstitutedamino-pyrimidine as prostaglandin D2 receptor antagonists” (Aventis Pharmaceuticals, Inc., priority 2004, dated 2009)
Structures can show the parent of a compound that is named as a salt.

Each molecule was assayed against T1, DP receptor (Homo sapiens, UniProt Q13258) (assay: SPA cAMP assay in human LS174 T cells (human DP functional assay)). Conditions: inhibition of PGD2 (15 nM final) stimulated cAMP, LS174T cells expressing endogenous DP receptor.
T1 construct: the human cell line LS174T, which expresses the endogenous DP receptor; endogenous in cells; host or cells: LS174T human cell line
T1 sequence (Q13258 1-359): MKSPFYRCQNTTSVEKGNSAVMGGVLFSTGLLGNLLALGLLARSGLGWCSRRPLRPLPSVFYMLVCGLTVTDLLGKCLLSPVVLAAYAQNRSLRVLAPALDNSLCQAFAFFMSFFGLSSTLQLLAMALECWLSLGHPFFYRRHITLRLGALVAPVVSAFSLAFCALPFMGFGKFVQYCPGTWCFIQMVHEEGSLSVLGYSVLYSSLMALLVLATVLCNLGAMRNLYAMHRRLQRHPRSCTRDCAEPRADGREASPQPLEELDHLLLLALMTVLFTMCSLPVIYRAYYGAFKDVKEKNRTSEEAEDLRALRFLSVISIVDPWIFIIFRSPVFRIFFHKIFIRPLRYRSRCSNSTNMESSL
Format: cell-based
How it was run: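 LS174T cells with endogenous DP receptor, 45,000/well seeded overnight, exposed to compounds at 11 points for 15 min at 37 °C in buffer containing IBMX, with PGD2 stimulation.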
In the case of `COc1nc(NCCc2ccc(Cl)cc2Cl)cc(-c2cccc(C(C)(C)c3nnn[nH]3)c2)n1` [Example 47, hydrochloride], the IC50 is reported as 0.4 nM. Molecule `COc1nc(NCc2ccsc2)cc(-c2cccc(C(C)(C)C(=O)O)c2)n1` [Example 71, 2-(3-{2-Methoxy-6-[(thiophen-3-ylmethyl)-amino]-pyrimidin-4-yl}-phenyl)-2-methyl-propionic acid] has an IC50 of 393 nM. Work on `COc1ccc(CCNc2cc(-c3cccc(-c4nnc(C)[nH]4)c3)nc(OC)n2)cc1` [Example 37, {2-Methoxy-6-[3-(5-methyl-2H-[1,2,4]triazol-3-yl)-phenyl]-pyrimidin-4-yl}-[2-(4-methoxy-phenyl)-ethyl]-amine] yielded an IC50 of 3.7 nM. `CNC(=O)c1ccc(-c2cc(NCCc3ccc(OC)cc3)nc(OC)n2)s1` [Example 62, 5-{2-Methoxy-6-[2-(4-methoxy-phenyl)-ethylamino]-pyrimidin-4-yl}-thiophene-2-carboxylic acid methylamide trifluoroacetate] gave an IC50 of 0.3 nM.
